Measurements taken from the supplement of paper PMC11061612.

Experiments:
Assay in all cases: combination Emax (second highest fraction inhibited in the dose matrix, 72 h); higher = more inhibition; extreme values may be limits of the assay
[1] = tested on: SK-HEP-1 (Hepatocellular Carcinoma)
Outline: (§1)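 Cell lines grown in DMEM/F12 or RPMI with 10% FBS were plated in 1536-well plates and held 24 hours at 37°C, 5% CO2 before 72 hours of exposure to two-drug dose matrices, with DMSO typically at 0.2%. CellTiter-Glo 2.0 luminescence gave viability, which was converted to inhibition. Vehicle wells were set to 0 and blank wells to 1. Combination Emax is the second-highest inhibition in the matrix, and Bliss excess is the observed combination effect minus the expected EA + EB − EA·EB, where EA and EB are the single-agent effects.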

[2] = tested on: SW620 (Colorectal Carcinoma)
Outline: as §1

[3] = tested on: HCC1395 (Breast Carcinoma)
Outline: as §1

[4] = tested on: NCI-H441 (Lung Adenocarcinoma)
Outline: as §1

[5] = tested on: MHH-ES-1 (Ewing's Sarcoma)
Outline: as §1

[6] = tested on: CGTH-W-1 (Thyroid Gland Carcinoma)
Outline: as §1

[7] = tested on: LU-165 (Small Cell Lung Carcinoma)
Outline: as §1

[8] = tested on: MDA-MB-436 (Breast Carcinoma)
Outline: as §1

EB2 (Burkitt's Lymphoma) = tested on: EB2 (Burkitt's Lymphoma)
Outline: as §1

[9] = tested on: A2780 (Ovarian Carcinoma)
Outline: as §1

HCC70 (Breast Carcinoma) = tested on: HCC70 (Breast Carcinoma)
Outline: as §1

[10] = tested on: JHH-2 (Hepatocellular Carcinoma)
Outline: as §1

| Compound | combination Emax [1] | combination Emax [2] | combination Emax [3] | combination Emax [4] | combination Emax [5] | combination Emax [6] | combination Emax [7] | combination Emax [8] | combination Emax (EB2 (Burkitt's Lymphoma)) | combination Emax [9] | combination Emax (HCC70 (Breast Carcinoma)) | combination Emax [10] |
| --- | --- | --- | --- | --- | --- | --- | --- | --- | --- | --- | --- | --- |
| C[C@@H](Nc1cc(F)cc(F)c1)c1cc(C(=O)N(C)C)cc2c(=O)cc(N3CCOCC3)oc12 [AZD8186] + CC(=O)c1c(C)c2cnc(Nc3ccc(N4CCNCC4)cn3)nc2n(C2CCCC2)c1=O [Palbociclib] (first compound max 10 µM, 7x7, partner max 10 µM) | 0.578 | 0.481 | 0.382 | 0.447 | 0.602 | 0.311 | 0.31 | 0.472 | 0.582 | 0.835 | 0.575 | 0.693 |
| C[C@@H](Oc1cc(-c2cnn(C3CCNCC3)c2)cnc1N)c1c(Cl)ccc(F)c1Cl [Crizotinib] + CC1=C(C(=CC=C1)Cl)NC(=O)C2=CN=C(S2)NC3=CC(=NC(=N3)C)N4CCN(CC4)CCO [Dasatinib] (first compound max 10 µM, 7x7, partner max 2 µM) | 0.433 | 0.867 | 0.88 | 0.63 | 0.77 | 0.961 | 0.469 | 0.3 | 0.591 | 0.882 | 0.117 | 0.883 |
| C[C@@H](Oc1cc(-c2cnn(C3CCNCC3)c2)cnc1N)c1c(Cl)ccc(F)c1Cl [Crizotinib] + Cn1cnc2c(F)c(Nc3ccc(Br)cc3Cl)c(C(=O)NOCCO)cc21 [Selumetinib] (first compound max 10 µM, 7x7, partner max 10 µM) | 0.387 | 0.861 | 0.491 | 0.415 | 0.889 | 0.213 | 0.279 | 0.292 | 0.566 | 0.922 | 0.448 | 0.598 |
| CS(=O)(=O)CCNCc1ccc(-c2ccc3ncnc(Nc4ccc(OCc5cccc(F)c5)c(Cl)c4)c3c2)o1 [Lapatinib] + Cn1cnc2c(F)c(Nc3ccc(Br)cc3Cl)c(C(=O)NOCCO)cc21 [Selumetinib] (first compound max 10 µM, 7x7, partner max 10 µM) | 0.133 | 0.656 | 0.846 | 0.32 | 0.401 | 0.245 | 0.24 | 0.352 | 0.324 | 0.684 | 0.891 | 0.565 |
| O=C(c1cc(Cc2n[nH]c(=O)c3ccccc23)ccc1F)N1CCN(C(=O)C2CC2)CC1 [Olaparib] + CC1(C)CCC(CN2CCN(c3ccc(C(=O)NS(=O)(=O)c4ccc(NCC5CCOCC5)c([N+](=O)[O-])c4)c(Oc4cnc5[nH]ccc5c4)c3)CC2)=C(c2ccc(Cl)cc2)C1 [Venetoclax] (first compound max 10 µM, 7x7, partner max 1 µM) | 0.73 | 0.182 | 0.242 | 0.113 | 0.86 | 0.053 | 0.207 | 0.277 | 0.242 | 0.462 | 0.141 | 0.114 |
| O=C(c1cc(Cc2n[nH]c(=O)c3ccccc23)ccc1F)N1CCN(C(=O)C2CC2)CC1 [Olaparib] + CN(CC[C@H](CSC1=CC=CC=C1)NC2=C(C=C(C=C2)S(=O)(=O)NC(=O)C3=CC=C(C=C3)N4CCC(CC4)[C@H](C5=CC=CC=C5C6=CC=C(C=C6)Cl)O)S(=O)(=O)C(F)(F)F)CCO [AZD4320] (first compound max 10 µM, 7x7, partner max 1 µM) | 0.911 | 0.329 | 0.407 | 0.213 | 0.952 | 0.0708 | 0.473 | 0.308 | 0.13 | 0.511 | 0.253 | 0.171 |
| O=C(c1cc(Cc2n[nH]c(=O)c3ccccc23)ccc1F)N1CCN(C(=O)C2CC2)CC1 [Olaparib] + COc1nnc2ccc(N3CCC(c4ccc(OCCN5CCN(C)C(=O)[C@H]5C)cc4)CC3)nn12 [AZD5153] (first compound max 10 µM, 7x7, partner max 1 µM) | 0.752 | 0.447 | 0.426 | 0.353 | 0.905 | 0.218 | 0.373 | 0.316 | 0.484 | 0.774 | 0.281 | 0.314 |
| O=C(c1cc(Cc2n[nH]c(=O)c3ccccc23)ccc1F)N1CCN(C(=O)C2CC2)CC1 [Olaparib] + Cc1c2c(nn1C)CSCc1cc(n(C)n1)CSc1cc(c3ccccc3c1)OCCCc1c(C(=O)O)n(C)c3c-2c(Cl)ccc13 [AZD5991] (first compound max 10 µM, 7x7, partner max 1 µM) | 0.478 | 0.173 | 0.616 | 0.0979 | 0.879 | 0.0485 | 0.141 | 0.234 | 0.192 | 0.924 | 0.879 | 0.163 |
